Our source for the IC50 values is patent US8946203B2, “Benzodioxane inhibitors of leukotriene production” (Boehringer Ingelheim International GmbH, priority 2012, dated 2015).

One test has as its target T1, human LTA4 hydrolase (Homo sapiens, UniProt P09960).
T1 sequence (P09960 1-611): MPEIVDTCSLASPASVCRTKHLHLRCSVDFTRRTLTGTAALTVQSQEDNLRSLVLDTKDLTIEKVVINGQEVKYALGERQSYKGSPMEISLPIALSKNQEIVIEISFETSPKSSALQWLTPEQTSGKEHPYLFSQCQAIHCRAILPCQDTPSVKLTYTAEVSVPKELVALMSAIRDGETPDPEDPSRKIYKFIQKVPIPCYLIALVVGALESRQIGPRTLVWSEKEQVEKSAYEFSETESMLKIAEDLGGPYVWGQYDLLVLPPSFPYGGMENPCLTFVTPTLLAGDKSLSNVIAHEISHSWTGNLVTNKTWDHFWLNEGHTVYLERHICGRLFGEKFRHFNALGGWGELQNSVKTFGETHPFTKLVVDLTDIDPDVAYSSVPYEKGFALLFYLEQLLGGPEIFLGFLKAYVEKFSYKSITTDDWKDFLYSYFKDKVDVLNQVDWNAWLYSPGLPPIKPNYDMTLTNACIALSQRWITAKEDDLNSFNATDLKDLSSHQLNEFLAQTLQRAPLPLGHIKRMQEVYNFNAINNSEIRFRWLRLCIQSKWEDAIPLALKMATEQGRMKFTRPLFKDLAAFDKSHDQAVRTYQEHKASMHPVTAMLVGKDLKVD
Briefly: LTA4H Enzyme assay (cleavage of Arg-AMC, fluorescence). The class given is biochemical. Conditions: LTA4H Enzyme 1 nM, Arg-AMC substrate 50 μM, room temperature 1 h, fluorescence; read-out: IC50 values of LTA4H Enzyme assay. The gist of the method: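 Peptidase activity of human LTA4H (1 nM final) on Arg-AMC (50 μM final), with compound, 1 h at room temperature. Buffer: 50 mM Tris-HCl pH 7.5, 100 mM KCl, 0.5% BSA.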

Test [1] concerns synthesis of LTB4 in human whole blood. Briefly: human whole blood (HWB) assay, LTB4 production inhibition after calcimycin stimulation. The class given is cell-based. The settings on record: heparinized human whole blood, calcimycin 20 μM, plasma LTB4 by HTRF. The gist of the method:
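Heparinized human whole blood preincubated with compound 15 min at 37 °C, then stimulated with 20 μM (final) calcimycin for 30 min at 37 °C. Plasma LTB4 measured by antibody-based HTRF; IC50 reported.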

Structures can show the parent of a compound that is named as a salt.

For the compound `O=C(O)C1CCC(C2CCN(Cc3ccc([C@H]4COc5cccnc5O4)cc3)CC2)CC1` (stereo partly drawn) [Example 265, 4-{1-[(S)-4-(2,3-Dihydro-[1,4]dioxino[2,3-b]pyridin-3-yl)-benzyl]-piperidin-4-yl}-cyclohexanecarboxylic acid], the values for the IC50 (at human LTA4 hydrolase; in test [1]) were 0.16 nM and 150 nM, respectively.
For `CC(=O)N[C@H]1C[C@H]2CC[C@@H](C1)N2Cc1ccc([C@H]2COc3cccnc3O2)cc1` [Example 278, N-{(endo)-8-[(S)-4-(2,3-Dihydro-[1,4]dioxino[2,3-b]pyridin-3-yl)-benzyl]-8-aza-bicyclo[3.2.1]oct-3-yl}-acetamide], in that order: 0.26 nM and 73 nM.
For `CC(C)(C(=O)O)C1CCN(Cc2ccc([C@H]3COc4ccccc4O3)cc2)CC1` [Example 229, 2-{1-[(S)-4-(2,3-Dihydro-benzo[1,4]dioxin-2-yl)-benzyl]-piperidin-4-yl}-2-methyl-propionic acid formate salt], in that order: 3.85 nM and 290 nM.
For `NC(=O)CN1CCCC12CCN(Cc1ccc([C@H]3COc4ccccc4O3)cc1)C2` (stereo partly drawn) [Example 123, 2-(7-{4-[(2S)-2,3-dihydro-1,4-benzodioxin-2-yl]benzyl}-1,7-diazaspiro[4.4]non-1-yl)acetamide], in that order: 0.73 nM and 312 nM.
Consider `CC(=O)N1CCC(N(C)Cc2ccc([C@H]3COc4ccccc4O3)cc2)CC1` [Example 14, 1-{4-[{4-[(2S)-2,3-dihydro-1,4-benzodioxin-2-yl]benzyl}(methyl)amino]piperidin-1-yl}ethanone], for which the IC50 at human LTA4 hydrolase was 0.27 nM; in test [1], 155 nM.
For `CC(=O)NCC1CCN(Cc2ccc([C@H]3COc4cccnc4O3)cc2)CC1` [Example 279, N-{1-[(S)-4-(2,3-Dihydro-[1,4]dioxino[2,3-b]pyridin-3-yl)-benzyl]-piperidin-4-ylmethyl}-acetamide], in that order: 0.34 nM and 93 nM.
For `O=C1OC[C@@H]2CN(Cc3ccc([C@H]4COc5cccnc5O4)cc3)CCN12` [Example 296, (S)-7-[(S)-4-(2,3-Dihydro-[1,4]dioxino[2,3-b]pyridin-3-yl)-benzyl]-hexahydro-oxazolo[3,4-a]pyrazin-3-one], in that order: 0.32 nM and 90 nM.
On to `c1cnc2c(c1)OCC(c1ccc(CN3CCOCC3)cc1)O2` (racemic) [Example 18, 3-[4-(morpholin-4-ylmethyl)phenyl]-2,3-dihydro[1,4]dioxino[2,3-b]pyridine], for which the IC50 at human LTA4 hydrolase was 1.14 nM; in test [1], 176 nM.
For `O=C(O)C[C@@H]1CCCN(Cc2ccc([C@H]3COc4ccccc4O3)cc2)C1` [Example 183, [(3S)-1-{4-[(2S)-2,3-dihydro-1,4-benzodioxin-2-yl]benzyl}piperidin-3-yl]acetic acid], in that order: 0.48 nM and 151 nM.
With `CC(=O)N(C)C1CCN(Cc2ccc([C@H]3COc4ccccc4O3)cc2)C1` (stereo partly drawn) [Example 83, N-(1-{4-[(2S)-2,3-dihydro-1,4-benzodioxin-2-yl]benzyl}pyrrolidin-3-yl)-N-methylacetamide], the values for the 50% inhibitory concentration (IC50) (on human LTA4 hydrolase; in test [1]) were 0.13 nM and 33 nM, respectively.
Regarding `CC(=O)N1CC[C@@H](NCc2ccc([C@H]3COc4ccccc4O3)cc2)C1` [Example 64, 1-[(3R)-3-({4-[(2S)-2,3-dihydro-1,4-benzodioxin-2-yl]benzyl}amino)pyrrolidin-1-yl]ethanone], the figures for the IC50 (at human LTA4 hydrolase; in test [1]) were 0.83 nM and 158 nM, respectively.
Consider `C[C@H](O)CNC(=O)[C@H]1[C@@H]2CN(Cc3ccc([C@H]4COc5cccnc5O4)cc3)C[C@@H]21` [Example 247, [(1α,5α,6α)-3-[(S)-4-(2,3-dihydro-[1,4]dioxino[2,3-b]pyridin-3-yl)-benzyl]-3-aza-bicyclo[3.1.0]hexane]-6-carboxylic acid ((S)-2-hydroxy-propyl)-amide], for which the IC50 stood at 0.17 nM on human LTA4 hydrolase and 68 nM in test [1].
